The results in this text go back to patent publication US7943795B2, “Vitamin D receptor modulators” (Eli Lilly and Company, priority 2004, dated 2011).

pEC50: −log10 of the molar value.

The target of test [1] is T1, RXR-VDR heterodimer (Homo sapiens, UniProt P11473).
T1 construct: add the Reporter gene pFR-LUC; and add the Gal-4-RXR-DEF and VP16-VDR-LBD; expressed in transfected cells; host or cells: SaOS-2 cells
T1 sequence (P11473 127-423 limits assumed): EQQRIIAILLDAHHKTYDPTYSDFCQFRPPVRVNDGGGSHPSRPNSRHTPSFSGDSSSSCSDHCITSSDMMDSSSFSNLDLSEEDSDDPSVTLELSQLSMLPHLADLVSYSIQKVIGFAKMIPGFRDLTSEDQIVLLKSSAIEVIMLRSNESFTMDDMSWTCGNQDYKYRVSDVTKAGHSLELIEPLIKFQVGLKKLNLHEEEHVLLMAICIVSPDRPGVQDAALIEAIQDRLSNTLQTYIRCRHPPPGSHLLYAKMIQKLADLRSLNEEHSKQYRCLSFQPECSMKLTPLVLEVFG
T1 sequence (P19793 201-462 partner limits assumed): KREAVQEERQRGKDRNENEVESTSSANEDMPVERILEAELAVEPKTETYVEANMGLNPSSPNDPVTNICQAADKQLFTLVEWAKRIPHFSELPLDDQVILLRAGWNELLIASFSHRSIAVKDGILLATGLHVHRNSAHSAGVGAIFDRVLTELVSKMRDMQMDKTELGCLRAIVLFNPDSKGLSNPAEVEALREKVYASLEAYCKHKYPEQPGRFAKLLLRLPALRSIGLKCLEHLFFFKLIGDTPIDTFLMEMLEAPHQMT
Put plainly: RXR-VDR heterodimerization (SaOS-2 cells) test. In kind it is cell-based. Particulars: Gal-4-RXR-DEF / VP16-VDR-LBD, luciferase reporter. Here is the method: 2. The RXR-VDR heterodimerization (SaOS-2 cells) test is described in the “Assay” section of the Description, infra.
1. The RXR-VDR Heterodimer Assay:
This assay provides the VDR activity of a test compound. It is desirable to have low EC50 values for a compound in this assay. […] Desired assay results are EC50 values less than or equal to 600 nM. Preferred assay results are less than 250 nM, and most preferably less than 150 nM.
(1) Materials and Method for RXR-VDR Heterodimerization Assay Transfection
• Method: Reagents: FuGENE 6 Transfection Reagent (Roche Cat #1 814 443); Growth Media: D-MEM High Glucose (Gibco BRL Cat #11054-020), 10% heat inactivated FBS, (Gibco BRL Cat#10092-147) 1% antibiotic-antimycotic (Ab-Am); (Gibco BRL Cat #15240-062). • Cells: Grow SaOS-2 cells in T-150 cm^2 culture flasks in growth media keeping the density at 5-6×10^5 cells/ml. Passage cells 1:3 twice a week. Add Trypsin EDTA (Gibco BRL Cat #25300-020) and incubate. Resuspend cells in plating media and transfer into growth media. • Wash Media: HBSS Low Glucose Without Phenol Red (Gibco BRL Cat #14175-095), 1% Ab-Am. Plating Media: D-MEM Low Glucose Without Phenol Red (Gibco BRL Cat #11054-020), 1% Ab-Am; D-MEM; 10% Stripped FBS (Hyclone Cat#SH30068.03 Lot #AHM9371); • Transfection/Treatment Media: D-MEM Low Glucose Without Phenol Red only; T-150 cm^2 culture flask: Use Corning Coastar T-150 cm^2 culture flask (Cat #430825) to grow the cells. • Luciferase Assay Reagent: Use Steady-Glo Luciferase Reagent from Promega (Cat #E2550) Consists of: E2533 Assay Substrate, lyophilized product and E2543 Assay Buffer. Thaw at room temperature and store. • Cell Harvesting/Count: Aspirate media from culture flask, rinse cells with HBSS and aspirate. Add trypsin and incubate. When cells appear detached, resuspend cells in growth media. Transfer into a new flask with fresh growth media for passaging the cells. Plate 96 well plates and two extra plates. Mix the cell suspension using pipette. To count the cells using a Hematocytometer. • Plate seeding: Use plating media 10% Stripped FBS in D-MEM Low Glucose, without Phenol Red, 1% Ab-Am. Plate 14 plates @ 165 μl/well. In sterile flask add cell suspension to plating media and mix. Add cells/well. Place the cells in the incubator. Cells should be about 75% confluent prior to transfection. DAY 2: Transfection: Step 1, DNA and Media: Add plain DMEM media to tubes for mixing the DNA; add the Reporter gene pFR-LUC; and add the Gal-4-RXR-DEF and VP16-VDR-LBD. Step 2, FuGENE and Media: Prepare plain DMEM media in a tubes for mixing FuGENE, add FuGENE 6 Transfection Reagent, and incubate. Step 3, FuGENE, DNA and Media Complex: Add FuGENE Media complex from step 2 to DNA Media complex from step 1 and incubate. Step 4, FuGENE, DNA and Media Complex to 96 well plate: Add FuGENE-DNA-Media complex from step 3 to each plate. Incubate. • Day 3: Dosing: Treatment preparation. Allow for transfection time. Make a stock solution of the compounds in DMSO and vortex until all the compounds have been dissolved. Further dilute in D-MEM (Low Glucose—without Phenol Red) Add compounds in quadruplicate to give desired final volume then incubate. • Day 4: Luciferase Assay: Read the plates after drug treatment. Remove part of media from all the wells and leave remainder. Add Steady-Glo Luciferase Reagent mixture/wells and incubate. Count each well using a Luminescence counter, Top Count NXT by Packard preferably set a delay between plates to reduce the background.
(In a reporter assay the amount or activity of a reporter protein is the signal.)

Test [2] deals with T2, VDR (Homo sapiens, UniProt P11473).
T2 construct: the receptor expression vector pGal4-VDR-LBD (10 ng); expressed in transfected cells; host or cells: Caco-2 cells
T2 sequence (P11473 127-423 limits assumed): T1 sequence (P11473 127-423 limits assumed)
Put plainly: VDR CTF (Caco-2 cells) co-transfection assay. The conditions noted are these: pGal4-VDR-LBD, luciferase reporter. In kind it is cell-based. Here is the method:
3. The VDR CTF (Caco-2 cells) test is described in the “Assay” section of the Description, infra.
The Caco-2 cell assay is an indicator for the undesirable condition of hypercalcemia. This co-transfection assay is a surrogate assay for in vivo calcemic activity of VDR ligands. It is desirable to have high EC50 values for a test compound in this assay. The higher the EC50 values for a compound the less calcemic it will be in vivo. Desired assay results are EC50 greater than or equal to 300 nM. Preferred assay results are greater than 1000 nM.
Caco-2 cells, grown in phenol red free, DMEM (Invitrogen, Carlsbad, Calif.) containing 10% charcoal-stripped FBS (Hyclone, Logan, Utah), are transfected with Fugene 6 reagent (Roche Diagnostics, Indianapolis, Ind.). Cells (5000/well) are plated 18 h before transfection in a 96 well plate. The cells are transfected with Gal4-responsive reporter pFRLuc (150 ng, Stratagene, La Jolla Calif.) and the receptor expression vector pGal4-VDR-LBD (10 ng), along with Fugene 6 reagent (0.2 μl/well). The DNA-Fugene complex is formed by incubating the mixture for 30 m at room temperature. The cells are transfected in triplicate for 5 h, and treated with various concentrations of VDR ligands (from 0.01 nM to […] concentration range) 18 h post-transfection. The luciferase activity is quantified using Steady-Glo reagent kit (Promega, Madison, Wis.) as per manufacturer's specifications.

For orientation: pEC50 means −log10 of the EC50, conventionally taken in molar units. A higher pEC50 goes with a small EC50. Broadly, the EC50 is the concentration that produces a half-maximal response. Lower therefore signals an effect from little substance. In turn, `CCC(CC)(c1ccc(OCC(=O)C(C)(C)C)c(C)c1)c1ccc2cc(C(=O)O)ccc2c1` [Ex. 1, 6-{1-[4-(3,3-dimethyl-2-oxobutoxy)-3-methylphenyl]-1-ethylpropyl}naphthalene-2-carboxylic acid] gave a negative-log EC50 (pEC50) in test [1] of 7.40. This compound also displayed an EC50 in test [2] of 194 nM.

`CCC(CC)(c1ccc(OCC(=O)C(C)(C)C)c(C)c1)c1ccc2cc(C(=O)NCC(=O)O)ccc2c1` [Ex. 3, [(6-{1-[4-(3,3-Dimethyl-2-oxo-butoxy)-3-methylphenyl]-1-ethylpropyl}naphthalene-2-carbonyl)amino]acetic acid]: in test [1], the pEC50 was 9.40. The EC50 in test [2] came out at 35 nM.

Regarding `CCC(CC)(c1ccc(OCC(=O)C(C)(C)C)c(C)c1)c1ccc2cc(C(=O)N(C)CC(=O)O)ccc2c1` [Ex. 5, [(6-{1-[4-(3,3-Dimethyl-2-oxobutoxy)-3-methylphenyl]-1-ethylpropyl}naphthalene-2-carbonyl)methylamino]acetic acid], the negative-log EC50 (pEC50) in test [1] was 9.00. Further, a half-maximal response in test [2] (EC50) required 162 nM.

In the case of `CCC(CC)(c1ccc(OCC(O)C(C)(C)C)c(C)c1)c1ccc2cc(C(=O)O)ccc2c1` (single isomer, unassigned) [Ex. 2A, 6-{1-Ethyl-1-[4-(2-hydroxy-3,3-dimethyl-butoxy)-3-methyl-phenyl]-propyl}-naphthalene-2-carboxylic acid], the pEC50 in test [1] is 7.52. A half-maximal response in test [2] (EC50) required 466 nM.

In test [1], `CCC(CC)(c1ccc(OCC(=O)C(C)(C)C)c(C)c1)c1ccc2cc(C(=O)N(C)C)ccc2c1` [Ex. 4, 6-{1-[4-(3,3-dimethyl-2-oxobutoxy)-3-methylphenyl]-1-ethylpropyl}naphthalene-2-carboxylic acid dimethylamide] gave a pEC50 of 6.98. This compound gave an EC50 in test [2] of 550 nM.
